Assay [1] has as its target T1, SMARCA2-HiBiT (Homo sapiens, UniProt P51531).
T1 construct: SMARCA2-HiBiT knock-in Hela monoclonal cell (CS302366); host or cells: HeLa monoclonal knock-in line (CRISPR HiBiT knock-in at the endogenous locus, heterozygous)
Nature of the assay: SMARCA2 HiBiT degradation assay in HeLa cells. Conditions: 18 hours incubation; for DC50: read-out: HeLa_HiBit-SM2 DC50; for Dmax: HeLa, read-out: HeLa-HiBit-SM2 Dmax (%). In kind it is cell-based. The gist of the method:
(§1)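 HeLa monoclonal lines with heterozygous HiBiT knock-in were seeded at 2500 cells/well in EMEM with 10% FBS and treated with compound for 18 h at 37 °C. Remaining tagged protein was measured by Nano-Glo HiBiT lytic luminescence after 30–60 min at RT, and values came from curve fitting.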
On the technique in general: HiBiT is a short tag that completes a luciferase, so light tracks the accessible tagged protein.

The target in assay [2] is T2, SMARCA4-HiBiT (Homo sapiens, UniProt P51532).
T2 construct: SMARCA4-HiBiT knock-in Hela monoclonal cell (CS3023226); host or cells: HeLa monoclonal knock-in line (CRISPR HiBiT knock-in at the endogenous locus, heterozygous)
T2 sequence (P51532 whole entry): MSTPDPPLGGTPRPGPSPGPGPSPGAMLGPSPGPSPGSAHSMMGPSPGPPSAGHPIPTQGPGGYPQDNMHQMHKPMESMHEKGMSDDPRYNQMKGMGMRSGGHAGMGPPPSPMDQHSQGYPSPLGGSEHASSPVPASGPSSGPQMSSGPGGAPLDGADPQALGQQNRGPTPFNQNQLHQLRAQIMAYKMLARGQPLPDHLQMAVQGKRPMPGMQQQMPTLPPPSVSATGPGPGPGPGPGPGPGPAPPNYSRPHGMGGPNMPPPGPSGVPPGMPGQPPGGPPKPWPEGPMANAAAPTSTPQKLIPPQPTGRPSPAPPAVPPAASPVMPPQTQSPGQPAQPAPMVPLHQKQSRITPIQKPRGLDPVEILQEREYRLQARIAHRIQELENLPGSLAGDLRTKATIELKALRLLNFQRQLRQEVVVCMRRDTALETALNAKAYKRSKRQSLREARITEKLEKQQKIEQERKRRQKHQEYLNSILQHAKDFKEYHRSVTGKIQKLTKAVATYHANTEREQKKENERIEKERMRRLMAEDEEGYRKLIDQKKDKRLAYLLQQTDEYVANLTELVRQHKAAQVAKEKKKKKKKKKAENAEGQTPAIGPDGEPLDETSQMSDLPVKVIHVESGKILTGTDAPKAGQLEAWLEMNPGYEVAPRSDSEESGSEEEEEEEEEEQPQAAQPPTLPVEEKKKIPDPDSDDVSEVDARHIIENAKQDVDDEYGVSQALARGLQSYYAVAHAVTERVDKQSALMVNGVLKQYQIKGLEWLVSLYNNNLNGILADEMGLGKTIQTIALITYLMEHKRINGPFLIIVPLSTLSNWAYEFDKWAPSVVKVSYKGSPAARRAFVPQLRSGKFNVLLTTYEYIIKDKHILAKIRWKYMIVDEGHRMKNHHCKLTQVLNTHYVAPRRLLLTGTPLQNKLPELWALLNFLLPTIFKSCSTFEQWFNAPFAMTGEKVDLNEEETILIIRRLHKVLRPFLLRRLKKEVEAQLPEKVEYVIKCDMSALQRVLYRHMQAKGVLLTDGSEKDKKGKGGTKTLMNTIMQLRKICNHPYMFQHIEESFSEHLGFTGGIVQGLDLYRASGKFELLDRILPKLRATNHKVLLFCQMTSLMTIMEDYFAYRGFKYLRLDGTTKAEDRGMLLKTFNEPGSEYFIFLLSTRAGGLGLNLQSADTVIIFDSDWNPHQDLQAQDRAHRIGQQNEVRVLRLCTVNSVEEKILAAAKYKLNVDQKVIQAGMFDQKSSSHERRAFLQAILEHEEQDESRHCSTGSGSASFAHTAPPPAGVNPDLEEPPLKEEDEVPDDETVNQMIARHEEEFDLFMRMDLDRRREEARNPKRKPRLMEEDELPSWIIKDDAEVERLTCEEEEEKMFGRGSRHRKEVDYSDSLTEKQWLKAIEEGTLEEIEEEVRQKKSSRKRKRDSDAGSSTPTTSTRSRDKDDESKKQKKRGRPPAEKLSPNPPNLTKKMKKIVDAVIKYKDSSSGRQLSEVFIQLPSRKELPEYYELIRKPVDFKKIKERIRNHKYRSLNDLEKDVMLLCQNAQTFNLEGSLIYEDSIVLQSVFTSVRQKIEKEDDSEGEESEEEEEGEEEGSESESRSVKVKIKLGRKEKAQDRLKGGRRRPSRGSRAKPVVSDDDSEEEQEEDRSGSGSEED
Put plainly: SMARCA4 HiBiT degradation assay in HeLa cells. Conditions: 18 hours incubation; for DC50: read-out: HeLa-HiBit-SM4 DC50; for Dmax: HeLa, read-out: HeLa-HiBit-SM4 Dmax (%). In kind it is cell-based. The method in brief: as §1

T1 sequence (P51531 whole entry): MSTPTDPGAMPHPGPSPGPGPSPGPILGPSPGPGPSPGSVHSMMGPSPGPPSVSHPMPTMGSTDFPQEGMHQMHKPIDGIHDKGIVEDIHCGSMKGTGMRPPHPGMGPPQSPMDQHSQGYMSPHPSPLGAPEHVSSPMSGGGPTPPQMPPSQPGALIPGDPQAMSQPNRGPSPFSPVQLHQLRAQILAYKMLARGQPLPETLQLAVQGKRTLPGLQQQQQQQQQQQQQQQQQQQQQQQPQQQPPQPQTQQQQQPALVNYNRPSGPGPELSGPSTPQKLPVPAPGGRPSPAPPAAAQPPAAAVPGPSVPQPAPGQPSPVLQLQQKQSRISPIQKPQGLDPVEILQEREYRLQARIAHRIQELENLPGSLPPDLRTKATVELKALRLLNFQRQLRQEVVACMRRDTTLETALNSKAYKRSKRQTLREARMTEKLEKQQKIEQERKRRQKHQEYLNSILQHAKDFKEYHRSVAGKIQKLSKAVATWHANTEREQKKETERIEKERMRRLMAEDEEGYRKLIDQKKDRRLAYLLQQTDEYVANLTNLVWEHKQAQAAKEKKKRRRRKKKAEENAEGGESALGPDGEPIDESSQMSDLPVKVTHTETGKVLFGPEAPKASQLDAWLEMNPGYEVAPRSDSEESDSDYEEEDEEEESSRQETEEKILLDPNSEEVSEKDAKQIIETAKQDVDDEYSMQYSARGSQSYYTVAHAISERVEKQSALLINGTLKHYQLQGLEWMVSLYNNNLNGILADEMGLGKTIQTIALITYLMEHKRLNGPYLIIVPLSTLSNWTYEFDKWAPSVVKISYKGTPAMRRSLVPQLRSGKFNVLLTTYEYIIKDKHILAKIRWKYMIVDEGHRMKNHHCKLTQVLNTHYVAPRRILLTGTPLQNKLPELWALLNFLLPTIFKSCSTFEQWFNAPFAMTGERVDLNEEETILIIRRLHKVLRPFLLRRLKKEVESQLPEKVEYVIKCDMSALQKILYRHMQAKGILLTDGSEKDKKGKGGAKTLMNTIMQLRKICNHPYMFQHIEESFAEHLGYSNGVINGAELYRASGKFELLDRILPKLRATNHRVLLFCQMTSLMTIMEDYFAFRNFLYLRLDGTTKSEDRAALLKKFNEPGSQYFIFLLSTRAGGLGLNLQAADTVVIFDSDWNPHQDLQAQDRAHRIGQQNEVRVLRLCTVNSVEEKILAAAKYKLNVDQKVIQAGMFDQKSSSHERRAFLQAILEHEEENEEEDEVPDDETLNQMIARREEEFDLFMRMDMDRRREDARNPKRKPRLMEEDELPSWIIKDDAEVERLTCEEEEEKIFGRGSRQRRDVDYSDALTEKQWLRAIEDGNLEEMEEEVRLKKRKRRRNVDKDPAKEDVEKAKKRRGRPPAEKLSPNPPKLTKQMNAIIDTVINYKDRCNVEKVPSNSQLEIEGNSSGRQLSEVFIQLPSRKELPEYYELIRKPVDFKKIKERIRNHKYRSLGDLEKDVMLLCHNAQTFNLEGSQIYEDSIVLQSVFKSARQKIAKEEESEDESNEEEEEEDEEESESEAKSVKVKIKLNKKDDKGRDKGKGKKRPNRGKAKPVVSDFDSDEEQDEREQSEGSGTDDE

For orientation: DC50 means the midpoint of the concentration-degradation curve. The Dmax is the largest share of the target that was removed. As for `O=C1CCC(N2Cc3ccc(N4CCC(CN5C[C@@H]6[C@H](C5)[C@H]6CN5CCN6c7cc(-c8ccccc8O)nnc7NC[C@H]6C5)CC4)cc3C2=O)C(=O)N1` (stereo partly drawn) [Example 232, 3-(6-(4-(((1R,5S,6r)-6-(((S)-2-(2-hydroxyphenyl)-5,6,6a,7,9,10-hexahydro-8H-pyrazino[1′,2′:4,5]pyrazino[2,3-c]pyridazin-8-yl)methyl)-3-azabicyclo[3.1.0]hexan-3-yl)methyl)piperidin-1-yl)-1-oxoisoindolin-2-yl)piperidine-2,6-dione], in assay [1], the DC50 was less than 0.01 µM and the Dmax is greater than 85%. For the same molecule, in assay [2], the DC50 is less than 0.01 µM and the Dmax is greater than 85%.

With `CC1(CN2CCN3c4cc(-c5ccccc5O)nnc4NC[C@H]3C2)CCN(CC2CCN(c3ccc4c(c3)CN(C3CCC(=O)NC3=O)C4=O)CC2)CC1` (stereo partly drawn) [Example 250, 3-(5-(4-((4-(((S)-2-(2-hydroxyphenyl)-5,6,6a,7,9,10-hexahydro-8H-pyrazino[1′,2′:4,5]pyrazino[2,3-c]pyridazin-8-yl)methyl)-4-methylpiperidin-1-yl)methyl)piperidin-1-yl)-1-oxoisoindolin-2-yl)piperidine-2,6-dione], in assay [1], the half-maximal degradation concentration (DC50) is less than 0.01 µM and the maximal degradation (Dmax) is greater than 85%. Moreover, in assay [2], the DC50 was less than 0.01 µM and the Dmax is greater than 85%.

Turning to `O=C1CCC(N2C(=O)c3ccc(C4CCN(C5CCN(CCN6CCN7c8cc(-c9ccccc9O)nnc8NC[C@H]7C6)C5)CC4)cc3C2=O)C(=O)N1` (stereo partly drawn) [Example 243, 2-(2,6-dioxopiperidin-3-yl)-5-(1-(1-(2-((S)-2-(2-hydroxyphenyl)-5,6,6a,7,9,10-hexahydro-8H-pyrazino[1′,2′:4,5]pyrazino[2,3-c]pyridazin-8-yl)ethyl)pyrrolidin-3-yl)piperidin-4-yl)isoindoline-1,3-dione], in assay [1], the 50% degradation concentration (DC50) was less than 0.01 µM and the Dmax was greater than 85%. Besides, in assay [2], the half-maximal degradation concentration (DC50) was less than 0.01 µM and the greatest degradation seen (Dmax) is greater than 85%.

Take `O=C1CCC(N2C(=O)c3ccc(N4CCC(CN5CCC(O)(CN6CCN7c8cc(-c9ccccc9O)nnc8NC[C@H]7C6)CC5)CC4)cc3C2=O)C(=O)N1` (stereo partly drawn) [Example 38, 2-(2,6-dioxopiperidin-3-yl)-5-(4-((4-hydroxy-4-(((S)-2-(2-hydroxyphenyl)-5,6,6a,7,9,10-hexahydro-8H-pyrazino[1′,2′:4,5]pyrazino[2,3-c]pyridazin-8-yl)methyl)piperidin-l-yl)methyl)piperidin-1-yl)isoindoline-1,3-dione]: the half-maximal degradation concentration (DC50) in assay [1] and in assay [2] was less than 0.01 µM each time. Further, the Dmax in assay [1] and in assay [2] was greater than 85% throughout.

With `O=C1CCC(N2Cc3cc(C4CCN(C5CCCN(CCN6CCN7c8cc(-c9ccccc9O)nnc8NC[C@H]7C6)C5)CC4)ccc3C2=O)C(=O)N1` (stereo partly drawn) [Example 211, 3-(5-(1′-(2-((S)-2-(2-hydroxyphenyl)-5,6,6a,7,9,10-hexahydro-8H-pyrazino[1′,2′:4,5]pyrazino[2,3-c]pyridazin-8-yl)ethyl)-[1,3′-bipiperidin]-4-yl)-1-oxoisoindolin-2-yl)piperidine-2,6-dione], in assay [1], the DC50 was less than 0.01 µM and the Dmax is greater than 85%. Besides, in assay [2], the DC50 is less than 0.01 µM and the maximal degradation (Dmax) is greater than 85%.

Take `O=C1CCC(N2Cc3ccc(N4CCC(CN5CCN(C(=O)N6CCN7c8cc(-c9ccccc9O)nnc8NC[C@H]7C6)C6(CC6)C5)CC4)cc3C2=O)C(=O)N1` (stereo partly drawn) [Example 262, 3-(6-(4-((4-((S)-2-(2-hydroxyphenyl)-6,6a,7,8,9,10-hexahydro-5H-pyrazino[1′,2′:4,5]pyrazino[2,3-c]pyridazine-8-carbonyl)-4,7-diazaspiro[2.5]octan-7-yl)methyl)piperidin-1-yl)-1-oxoisoindolin-2-yl)piperidine-2,6-dione]: in assay [1], the 50% degradation concentration (DC50) was less than 0.01 µM and the Dmax was greater than 85%. In addition, in assay [2], the DC50 was less than 0.01 µM and the greatest degradation seen (Dmax) is greater than 85%.

For `O=C1CCC(N2Cc3ccc(N4CCN(CC5CCN(C(=O)N6CCN7c8cc(-c9ccccc9O)nnc8NC[C@H]7C6)CC5)CC4)cc3C2=O)C(=O)N1` (stereo partly drawn) [Example 146, 3-(6-(4-((1-((S)-2-(2-hydroxyphenyl)-6,6a,7,8,9,10-hexahydro-5H-pyrazino[1′,2′:4,5]pyrazino[2,3-c]pyridazine-8-carbonyl)piperidin-4-yl)methyl)piperazin-1-yl)-1-oxoisoindolin-2-yl) piperidine-2,6-dione], in assay [1], the half-maximal degradation concentration (DC50) is less than 0.01 µM and the greatest degradation seen (Dmax) was greater than 85%. Besides, in assay [2], the DC50 was less than 0.01 µM and the Dmax is greater than 85%.

As to `O=C1CCC(N2C(=O)c3ccc(N4CCC(CN5CCN6c7cc(-c8ccccc8O)nnc7NC[C@H]6C5)CC4)cc3C2=O)C(=O)N1` (stereo partly drawn) [Example 157, 2-(2,6-dioxopiperidin-3-yl)-5-(4-(((S)-2-(2-hydroxyphenyl)-5,6,6a,7,9,10-hexahydro-8H-pyrazino[1′,2′:4,5]pyrazino[2,3-c]pyridazin-8-yl)methyl)piperidin-1-yl)isoindoline-1,3-dione], the half-maximal degradation concentration (DC50) was less than 0.01 µM in assay [1] and 0.01 to 0.1 µM in assay [2]. The values for the Dmax in assay [1] and in assay [2] were 75 to 85% and 50 to 75%, respectively.

In the case of `O=C1CCC(N2C(=O)c3ccc(N4CC[C@H](CN5C[C@@H]6[C@H](C5)[C@H]6CN5CCN6c7cc(-c8ccccc8O)nnc7NC[C@H]6C5)[C@@H](F)C4)cc3C2=O)C(=O)N1` (stereo partly drawn) [Example 194, 2-(2,6-dioxopiperidin-3-yl)-5-[(3R,4R)-3-fluoro-4-[[(1S,5R)-6-[[(10S)-4-(2-hydroxyphenyl)-1,5,6,8,12-pentazatricyclo[8.4.0.02,7]tetradeca-2(7),3,5-trien-12-yl]methyl]-3-azabicyclo[3.1.0]hexan-3-yl]methyl]piperidin-1-yl]isoindole-1,3-dione], in assay [1], the “HeLa-HiBit-SM2 Dmax (%)” value was “A (A=Dmax>85%)” and the DC50 is less than 0.01 µM. Also, in assay [2], the “HeLa-HiBit-SM4 Dmax (%)” value is recorded as “B (B=75%<Dmax<=85%)” and the half-maximal degradation concentration (DC50) is less than 0.01 µM.

In the case of `O=C1CCC(N2Cc3ccc(N4CCC(CN5CCN(C(=O)N6CCN7c8cc(-c9ccccc9O)nnc8NC[C@H]7C6)C(CO)C5)CC4)cc3C2=O)C(=O)N1` (stereo partly drawn) [Example 110, 3-(6-(4-((3-(hydroxymethyl)-4-((S)-2-(2-hydroxyphenyl)-6,6a,7,8,9,10-hexahydro-5H-pyrazino[1′,2′:4,5]pyrazino[2,3-c]pyridazine-8-carbonyl)piperazin-1-yl)methyl)piperidin-1-yl)-1-oxoisoindolin-2-yl)piperidine-2,6-dione], the 50% degradation concentration (DC50) in assay [1] was less than 0.01 µM; in assay [2], 0.01 to 0.1 µM. The greatest degradation seen (Dmax) in assay [1] is greater than 85%; in assay [2], 75 to 85%.

Consider `O=C1CCC(N2Cc3ccc(N4CC(CN5CCN(C(=O)N6CCN7c8cc(-c9ccccc9O)nnc8NC[C@H]7C6)CC5)C4)cc3C2=O)C(=O)N1` (stereo partly drawn) [Example 107, 3-(6-(3-((4-((S)-2-(2-hydroxyphenyl)-6,6a,7,8,9,10-hexahydro-5H-pyrazino[1′,2′:4,5]pyrazino[2,3-c]pyridazine-8-carbonyl)piperazin-1-yl)methyl)azetidin-1-yl)-1-oxoisoindolin-2-yl)piperidine-2,6-dione], for which, in assay [1], the DC50 is less than 0.01 µM and the greatest degradation seen (Dmax) is greater than 85%. Besides, in assay [2], the DC50 lay in the range of 0.01 to 0.1 µM and the Dmax fell in the range of 75 to 85%.
